Assay results as given in the supplement of paper PMC4862054.

Assays:
HCC1143 = experiment: normalised viability (% of control), CellTiter-Blue; higher = more viable cells (about 100 = DMSO control); details: incubation time: 72 h
Summary of the method: (§1)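 Breast cancer cell lines were treated for 72 h in 384-well format and measured by CellTiter-Blue fluorescence at 560/590 nm. Results were normalised per plate to vehicle (100) and a positive kill control (0). The entry is normalised viability at a single listed concentration of the series.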

Hs578T = experiment: as above; details: incubation time: 72 h
Summary of the method: as §1

MDA-MB-468 [1] = experiment: as above; details: incubation time: 72 h
Summary of the method: as §1

CAL-148 = experiment: as above; details: incubation time: 72 h
Summary of the method: as §1

CAL-120 = experiment: as above; details: incubation time: 72 h
Summary of the method: as §1

HCC1937 = experiment: as above; details: incubation time: 72 h
Summary of the method: as §1

MFM-223 = experiment: as above; details: incubation time: 72 h
Summary of the method: as §1

HCC1599 = experiment: as above; details: incubation time: 72 h
Summary of the method: as §1

BT-474 = experiment: as above; details: incubation time: 72 h
Summary of the method: as §1

CAL-85-1 = experiment: as above; details: incubation time: 72 h
Summary of the method: as §1

HDQ-P1 = experiment: as above; details: incubation time: 72 h
Summary of the method: as §1

MDA-MB-231 = experiment: as above; details: incubation time: 72 h
Summary of the method: as §1

CAL-51 = experiment: as above; details: incubation time: 72 h
Summary of the method: as §1

SK-BR-3 = experiment: as above; details: incubation time: 72 h
Summary of the method: as §1

MDA-MB-436 = experiment: as above; details: incubation time: 72 h
Summary of the method: as §1

BT-549 = experiment: as above; details: incubation time: 72 h
Summary of the method: as §1

DU-4475 = experiment: as above; details: incubation time: 72 h
Summary of the method: as §1

MDA-MB-453 = experiment: as above; details: incubation time: 72 h
Summary of the method: as §1

MDA-MB-468 [2] = details: 72 h
Summary of the method: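 Per-plate normalisation used 0.1 % DMSO and a positive kill control. Breast cancer cell lines (20 µl suspension) were seeded into 384-well plates containing compound at 5 concentrations in 10-fold steps across a compound-specific 10,000-fold range, incubated for 72 h, and read first for CellTox Green fluorescence (485/520 nm), then for CellTiter-Glo luminescence. EC50 was fitted from the dose-response curves and censored at the top concentration.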

CC(C)C[C@@H](C(=O)N[C@H](C(=O)OC1CCCC1)c1ccccc1)[C@H](O)C(=O)NO [Tosedostat]
normalised viability [%]
Details | 3 nM | 10 nM | 30 nM | 100 nM | 1000 nM | 10000 nM
BT-474 | – | 107 | – | – | 101 | 105
BT-549 | – | 85 | – | – | 63 | 39.1
CAL-51 | 110 | – | 111 | 86.5 | – | –
CAL-85-1 | 104 | – | 97.8 | 90.8 | – | –
CAL-120 | – | 82.4 | – | – | 65.4 | 55
CAL-148 | 100 | – | 96.3 | 81.2 | – | –
DU-4475 | 95.7 | – | 98.6 | 68 | – | –
HCC1143 | – | 86.3 | – | – | 63.8 | 61.1
HCC1599 | – | 96.5 | – | – | 81.6 | 106
HCC1937 | – | 83.6 | – | – | 36.8 | 44.5
HDQ-P1 | 116 | – | 100 | 111 | – | –
Hs578T | – | 96.9 | – | – | 86 | 70
MDA-MB-231 | – | 105 | – | – | 53.9 | 47.1
MDA-MB-436 | – | 92.4 | – | – | 73.1 | 75.3
MDA-MB-453 | 119 | – | 101 | 60.4 | – | –
MDA-MB-468 [1] | – | 91.5 | – | – | 55.5 | 54.2
MFM-223 | – | 91.6 | – | – | 64.1 | 32
SK-BR-3 | – | 96 | – | – | 85.7 | 63.4

Details | EC50, CellTiter-Glo [nM]
MDA-MB-468 [2] | 75.6

COc1cc2/c(=N/c3ccc(Br)cc3F)nc[nH]c2cc1OCC1CCN(C)CC1 [Vandetanib]
normalised viability [%]
Details | 3 nM | 10 nM | 30 nM | 100 nM | 1000 nM | 10000 nM
BT-474 | – | 92.7 | – | – | 78.8 | 8.47
BT-549 | – | 102 | – | – | 85.2 | 22.4
CAL-51 | 105 | – | 107 | 92.3 | – | –
CAL-85-1 | 105 | – | 109 | 101 | – | –
CAL-120 | – | 117 | – | – | 98.2 | 17.6
CAL-148 | 96.2 | – | 93.2 | 92.8 | – | –
DU-4475 | 108 | – | 102 | 106 | – | –
HCC1143 | – | 122 | – | – | 99.7 | 68.5
HCC1599 | – | 88.7 | – | – | 107 | 58.5
HCC1937 | – | 29.7 | – | – | 105 | 59.7
HDQ-P1 | 76.8 | – | 72.1 | 59.3 | – | –
Hs578T | – | 108 | – | – | 92.8 | 50
MDA-MB-231 | – | 86 | – | – | 82.5 | 8.26
MDA-MB-436 | – | 76.4 | – | – | 35.7 | 30.1
MDA-MB-453 | 89.6 | – | 94.4 | 91.4 | – | –
MDA-MB-468 [1] | – | 89.8 | – | – | 74.3 | 28
MFM-223 | – | 100 | – | – | 61.6 | 30.6
SK-BR-3 | – | 100 | – | – | 96.4 | 14.3

Details | EC50, CellTiter-Glo [nM]
MDA-MB-468 [2] | 7.82

COCC[n+]1c2c(n(Cc3cnccn3)c1C)C(=O)c1ccccc1C2=O [YM155]
normalised viability [%]
Details | 3 nM | 10 nM | 30 nM | 100 nM | 1000 nM | 10000 nM
BT-474 | – | 84.2 | – | – | 0.63 | 2.25
BT-549 | – | 83 | – | – | 0.74 | -0.61
CAL-51 | 94.6 | – | 38.9 | 11.5 | – | –
CAL-85-1 | 90.3 | – | 3.33 | 1.96 | – | –
CAL-120 | – | 9.27 | – | – | 2.84 | 3.14
CAL-148 | 98.3 | – | 1.65 | 1.83 | – | –
DU-4475 | 124 | – | 95.8 | 57.8 | – | –
HCC1143 | – | 83.8 | – | – | 3.34 | 2.44
HCC1599 | – | 62.8 | – | – | 3.16 | 2.97
HCC1937 | – | 25 | – | – | 0.8 | 2.31
HDQ-P1 | 80.4 | – | 16.8 | 0.96 | – | –
Hs578T | – | 84.8 | – | – | 19.6 | -0.04
MDA-MB-231 | – | 14.7 | – | – | 1.23 | 2.19
MDA-MB-436 | – | 34.5 | – | – | 0.04 | 0.01
MDA-MB-453 | 70.7 | – | 18.7 | 18.2 | – | –
MDA-MB-468 [1] | – | 12.8 | – | – | 0.21 | 0.26
MFM-223 | – | 62.8 | – | – | 12.2 | 6.53
SK-BR-3 | – | 44.3 | – | – | 0.33 | 0.6

Details | EC50, CellTiter-Glo [nM]
MDA-MB-468 [2] | 3.73
